# From US8415376B2, “Inhibitors of PI3 kinase” (Amgen Inc., priority 2008, dated 2013)
# Columns and labels:
# PI3Kα = biological target: T1, PI3Kα (Homo sapiens, UniProt P42336); experiment: In vitro PI3 kinase enzyme assay (PI3K ATP loss), alpha; format: biochemical; details: average if run more than once; read-out: ATP Loss (PBKα) IC50 μM (Avg)
# T1 construct: Full length p110 subunits of PI3K α, β and δ, N-terminally labeled with polyHis tag; polyHis (N); made in house; host or cells: Sf9 insect cells (baculovirus)
# Description: (§1) Full length p110 subunits of PI3K α, β and δ, N-terminally labeled with polyHis tag, can be co-expressed with p85 with Baculo virus expression vectors in sf9 insect cells. P110/p85 heterodimers can be purified by sequential Ni-NTA, Q-HP, Superdex-100 chromatography. Purified α, β and δ isozymes can be stored at −20° C. in 20 mM Tris, pH 8, 0.2M NaCl, 50% glycerol, 5 mM DTT, 2 mM Na cholate. […] The γ isozyme can be purified by sequential Ni-NTA, Superdex-200, Q-HP chromatography. The γ isozyme can be stored frozen at −80° C. in NaH2PO4, pH 8, 0.2M NaCl, 1% ethylene glycol, 2 mM β-mercaptoethanol.
# (§2) In Vitro PI3 Kinase Enzyme Assays (PI3K Atploss)
# (§3) PI3K enzyme assays (alpha, beta, delta and gamma) can be performed in 25 μL with the above final concentrations of components in white polyproplyene plates. Phosphatidyl inositol phosphoacceptor, PtdIns(4,5)P2 (eg. P4508) can be obtained from Echelon Biosciences, Salt Lake City, Utah. […] Test compounds can be dissolved in DMSO and diluted with three-fold serial dilutions. The compound in DMSO (1 μL) may be added per test well, and the inhibition relative to reactions containing no compound, with and without enzyme can be determined After assay incubation at RT, the reaction can be stopped and residual ATP can be determined by addition of an equal volume of a commercial ATP bioluminescence kit (Perkin Elmer EasyLite, Perkin Elmer, Waltham, Mass.) according to the manufacturer's instructions, and detected using an Analyst GT luminometer.
# PI3Kβ = biological target: T2, PI3Kβ (Homo sapiens, UniProt P42338); experiment: In vitro PI3 kinase enzyme assay (PI3K ATP loss), beta; format: biochemical; details: average if run more than once
# T2 construct: Full length p110 subunits of PI3K α, β and δ, N-terminally labeled with polyHis tag; polyHis (N); made in house; host or cells: Sf9 insect cells (baculovirus)
# Description: as §1, §2, §3
# [1] = test system: phosphorylation of Akt at Ser473; experiment: Cell-based phospho-Akt Ser473 assay (HCT116 cell); details: HCT 116 human colon carcinoma cells, IGF-1 stimulated; average
# From the text: Cell-Based Phospho-Akt Ser473 Assay (HCT116 Cell)
# This assay determines the ability of a compound to inhibit the phosphorylation of […] in Akt using a MSD based sandwich immunoassay (Meso Scale Detection, Meso Scale Discovery (MSD), Gaithersburg, Md.). HCT 116 human colon carcinoma cell lines can be grown in McCoy's 5A growth medium (GIBCO, Carlsbad, Calif.) containing 10% FBS (GIBCO, Carlsbad, Calif.) and X1 Penicillin-streptomycin-glutamine (GIBCO, Carlsbad, Calif.). Prior to the assay, cells can be detached from the culture flask with trypsin, and re-suspended in complete media to give a final concentration of 1.6×10^5 cells per mL. Aliquots (100 μl) of the HCT116 cell suspension can be seeded into each well of a 96 well tissue culture plate to give a final density of 16,000 cells per well. Cells can then be incubated overnight at 37° C.
# The following day the cells can be treated with serially diluted test compounds and incubated for 2 hours at 37° C. The culture media on the HCT 116 cells can be replaced with 189 μL McCoys media, supplemented with 0.1% BSA (ICN Biomedicals, Inc., Costa Mesa, Calif.). Compounds can be prepared as either 10 mM or 0.5 mM stock solutions in DMSO, and serially diluted 3 fold in a 10-point dose-response curve to give final concentrations that are 200-fold greater than the desired final test concentration. Aliquots (1 μL) of serially-diluted compounds can be transferred to 96 well tissue culture plates containing the HCT 116 cells. […] As a maximum response control, wells can contain 0.5% DMSO in place of compound. The plates can be mixed at 700 rpm for 2 min to ensure even distribution of the test compound and incubated for 2 hours at 37° C. Cells can then be stimulated with insulin-like growth factor 1 (Sigma, St Louis, Mo.) at final concentration of 100 ng/ml for 15 minutes at 37° C. The media can then be removed and the cells treated with 80 μL cell-lysis buffer (MSD) containing a cocktail of protease and phosphatase inhibitors for one hour at 4° C.
# 25 μL Cell lysate can then be transferred to pre-blocked MSD assay plates pre-coated with a capture antibody specific for Akt, and the plates can be incubated for 2 hours at room temperature. The cell lysates can then be removed and plates can then be washed four times with 200 μl per well of Tris wash buffer (500 mM Tris, PH 7.5, 1.5 M NaCl, 0.2% Tween-20). Subsequently cells can be incubated for 1 hour at room temperature with a 25 μL solution containing the detection antibody, anti-phospho Akt (Ser 473) labeled with an electrochemiluminescent compound (Meso Scale Discovery SULPHO-TAG™ label, MSD, Gaithersburg, Md.). The detection antibody can be removed and plates can then be washed four times with 200 μL per well of Tris wash buffer. An aliquot of 150 μL of diluted MSD read buffer can then be applied to each well, and the electrochemiluminescent signal can be measured using a MSD SECTOR™ plate reader (Meso Scale Discovery, Gaithersburg, Md.). This instrument measures the intensity of emitted light to determine a quantitative measure of phosphorylated Akt in each well. The dose-response data obtained with each compound can be analyzed and the IC50 inhibition of Akt phosphorylation at Ser473 can be calculated.
# Activity data for the compounds tested in the PI3K cell based Akt assay is provided in Table 1 under the column heading HCT116 Cell.
# T2 sequence (P42338 whole entry): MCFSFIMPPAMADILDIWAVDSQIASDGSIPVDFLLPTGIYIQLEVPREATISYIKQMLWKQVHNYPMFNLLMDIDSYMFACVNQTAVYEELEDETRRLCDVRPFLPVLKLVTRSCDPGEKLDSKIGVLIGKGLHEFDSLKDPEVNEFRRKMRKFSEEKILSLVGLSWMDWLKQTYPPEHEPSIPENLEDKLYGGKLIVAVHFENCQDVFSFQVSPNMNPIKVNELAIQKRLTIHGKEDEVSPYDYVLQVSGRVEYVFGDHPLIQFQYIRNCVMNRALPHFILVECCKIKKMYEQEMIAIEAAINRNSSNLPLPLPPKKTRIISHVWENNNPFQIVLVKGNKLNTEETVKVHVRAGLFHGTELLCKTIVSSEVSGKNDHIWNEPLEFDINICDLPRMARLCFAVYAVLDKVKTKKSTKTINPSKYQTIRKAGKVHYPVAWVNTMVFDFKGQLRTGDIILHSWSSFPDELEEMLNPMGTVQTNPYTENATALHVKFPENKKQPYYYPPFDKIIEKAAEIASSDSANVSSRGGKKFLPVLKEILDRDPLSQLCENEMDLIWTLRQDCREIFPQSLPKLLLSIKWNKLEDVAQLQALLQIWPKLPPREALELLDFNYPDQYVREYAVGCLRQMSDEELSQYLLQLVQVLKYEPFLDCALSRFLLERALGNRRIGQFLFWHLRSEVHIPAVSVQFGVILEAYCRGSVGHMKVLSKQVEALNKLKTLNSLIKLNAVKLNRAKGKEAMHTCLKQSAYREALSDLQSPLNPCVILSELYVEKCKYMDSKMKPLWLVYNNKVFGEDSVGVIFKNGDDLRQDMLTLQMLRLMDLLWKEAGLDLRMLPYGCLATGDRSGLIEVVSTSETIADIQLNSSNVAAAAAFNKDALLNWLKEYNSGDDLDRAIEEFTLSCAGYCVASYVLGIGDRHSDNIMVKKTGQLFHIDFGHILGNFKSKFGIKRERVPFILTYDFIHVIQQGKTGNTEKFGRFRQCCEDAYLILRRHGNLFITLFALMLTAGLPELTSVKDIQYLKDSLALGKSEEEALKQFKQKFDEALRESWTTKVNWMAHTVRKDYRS
# T2 sequence (P27986 whole entry partner): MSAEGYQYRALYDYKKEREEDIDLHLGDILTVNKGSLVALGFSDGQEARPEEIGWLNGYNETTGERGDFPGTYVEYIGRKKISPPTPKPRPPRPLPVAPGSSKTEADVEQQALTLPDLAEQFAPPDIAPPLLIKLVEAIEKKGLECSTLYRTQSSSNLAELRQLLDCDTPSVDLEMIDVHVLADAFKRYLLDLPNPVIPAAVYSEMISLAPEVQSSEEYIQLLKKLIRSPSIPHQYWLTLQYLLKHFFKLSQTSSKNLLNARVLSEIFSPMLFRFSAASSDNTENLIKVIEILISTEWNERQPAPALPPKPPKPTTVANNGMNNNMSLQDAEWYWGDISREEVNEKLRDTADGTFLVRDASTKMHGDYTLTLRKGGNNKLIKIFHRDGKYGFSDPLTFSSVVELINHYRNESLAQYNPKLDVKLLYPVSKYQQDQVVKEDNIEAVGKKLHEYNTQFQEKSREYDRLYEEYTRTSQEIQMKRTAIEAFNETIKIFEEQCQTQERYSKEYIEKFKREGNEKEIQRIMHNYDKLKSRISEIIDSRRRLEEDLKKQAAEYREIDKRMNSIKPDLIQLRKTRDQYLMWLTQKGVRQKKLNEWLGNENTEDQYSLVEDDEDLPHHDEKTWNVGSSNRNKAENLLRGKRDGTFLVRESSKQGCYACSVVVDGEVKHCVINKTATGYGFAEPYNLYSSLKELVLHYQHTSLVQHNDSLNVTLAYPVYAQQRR
# T1 sequence (P42336 whole entry): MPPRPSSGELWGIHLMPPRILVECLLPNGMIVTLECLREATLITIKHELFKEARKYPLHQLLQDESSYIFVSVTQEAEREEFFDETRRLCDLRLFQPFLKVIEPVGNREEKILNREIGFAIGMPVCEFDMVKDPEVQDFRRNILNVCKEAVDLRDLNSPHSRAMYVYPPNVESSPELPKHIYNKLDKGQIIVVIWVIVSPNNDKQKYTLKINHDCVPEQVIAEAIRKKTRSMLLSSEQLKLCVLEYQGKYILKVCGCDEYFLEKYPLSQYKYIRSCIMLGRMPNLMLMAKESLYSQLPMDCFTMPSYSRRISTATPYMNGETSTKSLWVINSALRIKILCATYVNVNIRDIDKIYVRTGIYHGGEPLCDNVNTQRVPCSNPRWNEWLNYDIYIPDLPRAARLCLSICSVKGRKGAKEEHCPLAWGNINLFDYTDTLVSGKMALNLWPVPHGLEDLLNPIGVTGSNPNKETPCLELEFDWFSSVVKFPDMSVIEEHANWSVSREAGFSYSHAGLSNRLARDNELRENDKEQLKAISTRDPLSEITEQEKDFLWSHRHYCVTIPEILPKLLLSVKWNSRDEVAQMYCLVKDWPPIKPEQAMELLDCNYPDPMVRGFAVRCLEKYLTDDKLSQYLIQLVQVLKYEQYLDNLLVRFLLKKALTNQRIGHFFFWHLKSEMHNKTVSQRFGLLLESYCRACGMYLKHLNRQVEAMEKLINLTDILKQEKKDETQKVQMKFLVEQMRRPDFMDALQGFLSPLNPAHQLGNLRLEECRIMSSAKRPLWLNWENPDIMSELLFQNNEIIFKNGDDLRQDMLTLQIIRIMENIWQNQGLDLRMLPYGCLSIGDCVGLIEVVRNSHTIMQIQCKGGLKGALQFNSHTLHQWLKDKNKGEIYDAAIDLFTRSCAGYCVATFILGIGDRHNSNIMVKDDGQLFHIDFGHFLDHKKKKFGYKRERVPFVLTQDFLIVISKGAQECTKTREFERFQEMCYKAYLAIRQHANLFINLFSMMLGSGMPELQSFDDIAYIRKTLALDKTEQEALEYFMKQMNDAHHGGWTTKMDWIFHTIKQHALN
# T1 sequence (P27986 whole entry partner): as the sequence (P27986 whole entry partner) above
SMILES,IC50 (PI3Kα) [µM],IC50 (PI3Kβ) [µM],IC50 [1] [µM]
"COCC1CCCN1c1cnc2ccc(-c3cnc(Cl)c(NS(=O)(=O)c4ccc(F)cc4)c3)cc2n1 (stereo not drawn) [Example 68, N-(2-chloro-5-(3-(2-(methoxymethyl)-1-pyrrolidinyl)-6-quinoxalinyl)-3-pyridinyl)-4-fluorobenzenesulfonamide]",0.0081,0.0358,0.0434
"CS(=O)(=O)Nc1cc(-c2ccc3nccc(Cl)c3c2)cnc1Cl [Example 9, N-(2-chloro-5-(4-chloro-6-quinolinyl)-3-pyridinyl)methanesulfonamide]",0.0142,0.052,2.06
"O=S(=O)(Nc1cc(-c2ccc3ncc(NCCOc4ccccc4)nc3c2)cnc1Cl)c1ccc(F)cc1 [Example 57, N-(2-chloro-5-(3-((2-phenoxyethyl)amino)-6-quinoxalinyl)-3-pyridinyl)-4-fluorobenzenesulfonamide]",0.0022,0.0079,0.0451
"O=S(=O)(Nc1cc(-c2ccc3nccc(-c4ccccc4)c3c2)cnc1Cl)c1ccc(F)cc1 [Example 36, N-(2-chloro-5-(4-phenyl-6-quinolinyl)-3-pyridinyl)-4-fluorobenzenesulfonamide]",0.0071,0.0149,0.0914
"CN(CC#N)c1cnc2ccc(-c3cnc(Cl)c(NS(=O)(=O)c4ccc(F)cc4)c3)cc2n1 [Example 71, N-(2-chloro-5-(3-((cyanomethyl)(methyl)amino)-6-quinoxalinyl)-3-pyridinyl)-4-fluorobenzenesulfonamide]",0.0188,0.0934,0.0893
"CC(C)(C)OC(=O)N1CCCC(CNc2cnc3ccc(-c4cnc(Cl)c(NS(=O)(=O)c5ccc(F)cc5)c4)cc3n2)C1 (stereo not drawn) [Example 59, tert-butyl 3-(((7-(6-chloro-5-(((4-fluorophenyl)sulfonyl)amino)-3-pyridinyl)-2-quinoxalinyl)amino)methyl)-1-piperidinecarboxylate]",0.0031,0.0225,0.136
"O=S(=O)(Nc1cc(-c2ccc3nccc(N4CCOCC4)c3c2)cnc1Cl)c1ccccc1F [Example 32, N-(2-chloro-5-(4-(4-morpholinyl)-6-quinolinyl)-3-pyridinyl)-2-fluorobenzenesulfonamide]",0.005,0.0248,0.0117
"O=S(=O)(Nc1cc(-c2ccc3ncc(N4CCCCC4)nc3c2)cnc1Cl)c1ccc(F)cc1 [Example 54, N-(2-chloro-5-(3-(1-piperidinyl)-6-quinoxalinyl)-3-pyridinyl)-4-fluorobenzenesulfonamide]",0.0027,0.0842,0.141
"O=S(=O)(Nc1cc(-c2ccc3nccc(N4CCC(O)CC4)c3c2)cnc1Cl)c1ccc(F)cc1 [Example 27, N-(2-chloro-5-(4-(4-hydroxy-1-piperidinyl)-6-quinolinyl)-3-pyridinyl)-4-fluorobenzenesulfonamide]",0.0041,0.0126,0.176
"COc1ccc(S(=O)(=O)Nc2cc(-c3ccc4nc(N)ccc4c3)cnc2Cl)cc1 [Example 46, N-(5-(2-amino-6-quinolinyl)-2-chloro-3-pyridinyl)-4-methoxybenzenesulfonamide]",0.136,0.18,0.108
"CC1CN(c2cnc3ccc(-c4cnc(Cl)c(NS(=O)(=O)c5ccc(F)cc5)c4)cc3n2)CC(C)O1 (stereo not drawn) [Example 67, N-(2-chloro-5-(3-(2,6-dimethyl-4-morpholinyl)-6-quinoxalinyl)-3-pyridinyl)-4-fluorobenzenesulfonamide]",0.0029,0.0648,0.0203
"COc1cnc2ccc(-c3cnc(Cl)c(NS(C)(=O)=O)c3)cc2c1 [Example 10, N-(2-chloro-5-(3-methoxy-6-quinolinyl)-3-pyridinyl)methanesulfonamide]",0.0424,0.166,0.348
"COc1ccc(S(=O)(=O)Nc2cc(-c3ccc4nccc(N(C)C)c4c3)cnc2Cl)cc1 [Example 49, N-(2-chloro-5-(4-(dimethylamino)-6-quinolinyl)-3-pyridinyl)-4-methoxybenzenesulfonamide]",0.0074,0.0151,0.273
"O=S(=O)(Nc1cc(-c2ccc3ncccc3c2)cnc1Cl)c1ccc(F)cc1 [Example 7, N-(2-chloro-5-(6-quinolinyl)-3-pyridinyl)-4-fluorobenzenesulfonamide]",0.0099,0.0277,1.3
"CC(=O)N1CCN(c2cnc3ccc(-c4cnc(Cl)c(NS(=O)(=O)c5ccc(F)cc5)c4)cc3n2)CC1 [Example 56, N-(5-(3-(4-acetyl-1-piperazinyl)-6-quinoxalinyl)-2-chloro-3-pyridinyl)-4-fluorobenzenesulfonamide]",0.0057,0.0318,0.0236
"COc1ccc(S(=O)(=O)Nc2cc(-c3ccc4nc(NC(C)=O)ccc4c3)cnc2Cl)cc1 [Example 45, N-(6-(6-chloro-5-(((4-methoxyphenyl)sulfonyl)amino)-3-pyridinyl)-2-quinolinyl)acetamide]",0.0192,0.0597,0.0646
"O=S(=O)(Nc1cc(-c2ccc3nccc(N4CCOCC4)c3c2)cnc1Cl)c1ccccc1Cl [Example 33, 2-chloro-N-(2-chloro-5-(4-(4-morpholinyl)-6-quinolinyl)-3-pyridinyl)benzenesulfonamide]",0.0041,0.0219,0.0063
"CC(C)(C)OC(=O)NCCOc1ccnc2ccc(-c3cnc(Cl)c(NS(=O)(=O)c4ccc(F)cc4)c3)cc12 [Example 3, tert-butyl(2-((6-(6-chloro-5-(((4-fluorophenyl)sulfonyl)amino)-3-pyridinyl)-4-quinolinyl)oxy)ethyl)carbamate]",0.0678,0.682,1.66
"CC(Nc1cnc2ccc(-c3cnc(Cl)c(NS(=O)(=O)c4ccc(F)cc4)c3)cc2n1)c1ccc(F)cc1 (stereo not drawn) [Example 60, N-(2-chloro-5-(3-((1-(4-fluorophenyl)ethyl)amino)-6-quinoxalinyl)-3-pyridinyl)-4-fluorobenzenesulfonamide]",0.0103,0.0436,0.569
"O=S(=O)(Nc1cc(-c2ccc3nccc(N4CCOCC4)c3c2)cnc1Cl)c1c(Cl)cccc1Cl [Example 34, 2,6-dichloro-N-(2-chloro-5-(4-(4-morpholinyl)-6-quinolinyl)-3-pyridinyl)benzenesulfonamide]",0.0065,0.0359,0.0376
"COc1cnc2ccc(-c3cnc(Cl)c(NS(=O)(=O)c4ccc(F)cc4)c3)cc2c1 [Example 4, N-(2-chloro-5-(3-methoxy-6-quinolinyl)-3-pyridinyl)-4-fluorobenzenesulfonamide]",0.0162,0.0253,0.186
"COc1ccc(CNc2cnc3ccc(-c4cnc(Cl)c(NS(=O)(=O)c5ccc(F)cc5)c4)cc3n2)cc1 [Example 63, N-(2-chloro-5-(3-((4-methoxybenzyl)amino)-6-quinoxalinyl)-3-pyridinyl)-4-fluorobenzenesulfonamide]",0.0056,0.0502,0.158
"CC(c1ccccc1)N1CCN(c2ccnc3ccc(-c4cnc(Cl)c(NS(=O)(=O)c5ccc(F)cc5)c4)cc23)CC1 (stereo not drawn) [Example 29, N-(2-chloro-5-(4-(4-(1-phenylethyl)-1-piperazinyl)-6-quinolinyl)-3-pyridinyl)-4-fluorobenzenesulfonamide]",0.0069,0.0449,0.345
